Each molecule was assayed against T1, Human GO (Homo sapiens, UniProt Q9UJM8) (assay: GO enzymatic assay (coupled fluorescence/HRP assay, glycolate substrate)). Conditions: Table 1; read-out: Range (range of IC50 values calculated from the enzymatic assays).
T1 construct: purchased Novus Biologicals NBP1-72412
T1 sequence (Q9UJM8 1-370): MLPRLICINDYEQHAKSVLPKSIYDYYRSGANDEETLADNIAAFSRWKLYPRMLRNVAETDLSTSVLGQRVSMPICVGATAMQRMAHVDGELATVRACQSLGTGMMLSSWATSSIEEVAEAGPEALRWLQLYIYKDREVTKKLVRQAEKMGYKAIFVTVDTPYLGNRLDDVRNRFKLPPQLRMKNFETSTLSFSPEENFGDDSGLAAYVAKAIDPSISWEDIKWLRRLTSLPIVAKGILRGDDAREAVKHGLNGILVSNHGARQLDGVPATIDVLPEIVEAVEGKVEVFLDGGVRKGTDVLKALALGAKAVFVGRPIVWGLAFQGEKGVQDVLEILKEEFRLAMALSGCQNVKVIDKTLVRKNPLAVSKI
Assay type: biochemical
Protocol: Assay 1: GO Enzymatic Assay
GO was incubated with its substrate, glycolate, in 50 mM potassium phosphate buffer, pH 7. […] The enzyme was optimized and the kinetics was determined.
Compound inhibition was determined by adding various concentrations of inhibitors in the GO enzyme assay. The IC50 value for each measured compound was generated from sigmoidal dose-response (variable slope) curves with GraphPad Prism software (GraphPad Software, Inc., San Diego, Calif.) using the percent inhibition of GO activity relative to DMSO control.
For `O=C(O)c1[nH]nnc1Nc1ccc(-c2ccc(OC(F)(F)F)cc2)cc1` [Compound 62, 4-((4′-(trifluoromethoxy)-[1,1′-biphenyl]-4-yl)amino)-1H-1,2,3-triazole-5-carboxylic acid 2,2,2-trifluoroacetate], the IC50 was < 100 nM. `CN(c1csc(-c2ccc(Cl)c(Cl)c2)n1)c1nn[nH]c1C(=O)O` [Compound 63, 4-((2-(3,4-dichlorophenyl)thiazol-4-yl)(methyl)amino)-1H-1,2,3-triazole-5-carboxylic acid] gave an IC50 of 100 to 1000 nM. For `O=C(O)c1[nH]nnc1Nc1nc(-c2ccc(OC(F)(F)F)c(Cl)c2)cs1` [Compound 64, 4-((4-(3-chloro-4-(trifluoromethoxy)phenyl)thiazol-2-yl)amino)-1H-1,2,3-triazole-5-carboxylic acid], the IC50 was < 100 nM. In the case of `COC(=O)c1[nH]nnc1Nc1ccc(-c2ccc(OC(F)(F)F)cc2)cc1` [Compound 65, methyl 4-((4′-(trifluoromethoxy)-[1,1′-biphenyl]-4-yl)amino)-1H-1,2,3-triazole-5-carboxylate], the IC50 is reported as > 10000 nM. `O=C(O)CN(c1ccc(-c2ccc(Cl)cc2)cc1)c1nn[nH]c1C(=O)O` [Compound 66, 4-((carboxymethyl)(4′-chloro-[1,1′-biphenyl]-4-yl)amino)-1H-1,2,3-triazole-5-carboxylic acid 2,2,2-trifluoroacetate] gave an IC50 of 1000 to 10000 nM. Work on `O=C(O)c1[nH]nnc1NCc1cccc(-c2ccc(Cl)c(Cl)c2)c1` [Compound 67, 4-(((3′,4′-dichloro-[1,1′-biphenyl]-3-yl)methyl)amino)-1H-1,2,3-triazole-5-carboxylic acid] yielded an IC50 of 100 to 1000 nM. In the case of `O=C(O)c1[nH]nnc1NCc1ccc(-c2ccc(Cl)c(Cl)c2)cc1` [Compound 68, 4-(((3′,4′-dichloro-[1,1′-biphenyl]-4-yl)methyl)amino)-1H-1,2,3-triazole-5-carboxylic acid], the IC50 is reported as < 100 nM. With `O=C(O)c1[nH]nnc1Nc1ccc(Cl)c(Cl)c1` [Compound 69, 4-((3,4-dichlorophenyl)amino)-1H-1,2,3-triazole-5-carboxylic acid] the IC50 was < 100 nM. In the case of `O=C(O)c1[nH]nnc1NC1CCCN(c2ccc(OC(F)(F)F)cc2)C1` (stereo not shown) [Compound 70, 4-((1-(4-(trifluoromethoxy)phenyl)piperidin-3-yl)amino)-1H-1,2,3-triazole-5-carboxylic acid], the IC50 is reported as 100 to 1000 nM. In the case of `O=C(O)c1[nH]nnc1NC1CCN(c2ccc(Cl)cc2)CC1` [Compound 71, 4-((1-(4-chlorophenyl)piperidin-4-yl)amino)-1H-1,2,3-triazole-5-carboxylic acid 2,2,2-trifluoroacetate], the IC50 is reported as 100 to 1000 nM. With `O=C(OC1CC1)c1[nH]nnc1Nc1ccc(-c2ccc(OC(F)(F)F)cc2)cc1` [Compound 72, cyclopropyl 4-((4′-(trifluoromethoxy)-[1,1′-biphenyl]-4-yl)amino)-1H-1,2,3-triazole-5-carboxylate 2,2,2-trifluoroacetate] the IC50 was > 10000 nM. Molecule `O=C(O)c1[nH]nnc1NC1CCN(c2ccc(OC(F)(F)F)cc2)C1` (stereo not shown) [Compound 73] has an IC50 of 100 to 1000 nM. Molecule `O=C(O)c1[nH]nnc1NC1CCN(c2ccc(OC(F)(F)F)cc2)CC1` [Compound 74, 4-((1-(4-(trifluoromethoxy)phenyl)piperidin-4-yl)amino)-1H-1,2,3-triazole-5-carboxylic acid] has an IC50 of 100 to 1000 nM. With `CN(c1ccc(-c2ccc(Cl)cc2)cc1)c1nn[nH]c1C(=O)O` [Compound 75, 4-((4′-chloro-[1,1′-biphenyl]-4-yl)(methyl)amino)-1H-1,2,3-triazole-5-carboxylic acid 2,2,2-trifluoroacetate] the IC50 was 100 to 1000 nM. For `O=C(O)c1[nH]nnc1Nc1ccc2cc(Cl)ccc2n1` [Compound 76, 4-((6-chloroquinolin-2-yl)amino)-1H-1,2,3-triazole-5-carboxylic acid], the IC50 was < 100 nM. With `O=C(O)c1[nH]nnc1Nc1ccc2c(c1)CCCC2` [Compound 77, 4-((5,6,7,8-tetrahydronaphthalen-2-yl)amino)-1H-1,2,3-triazole-5-carboxylic acid] the IC50 was 1000 to 10000 nM.

— patent publication US11384055B2 (BIOMARIN PHARMACEUTICAL INC., priority 2017, dated 2022)
